# In US10562857B2 (AFASCI, Inc., priority 2015, dated 2020):
# Biological target: T1, Cav3.2 channel (Homo sapiens, UniProt O95180)
# T1 construct: expressed in transfected cells; host or cells: HEK-293, tetracycline inducible expression system (Invitrogen)
# Assay: Whole-cell patch clamp of T-type Cav3.2 channel expressed in HEK293 cells
# Type: cell-based
# Details: not given
# Procedure: Cav3.1, Cav3.2 or Cav3.3 channels were expressed in human embryonic kidney (HEK)-293 cells using a tetracycline inducible expression system (Invitrogen). Cells were maintained in 25 cm^2 tissue culture flasks at 37° C., 5% CO2, and 100% relative humidity in D-MEM/F12 (Dulbecco's Modified Eagle Medium/Nutrient Mixture F-12; Gibco) supplemented with fetal bovine serum (FBS, 10% v/v), sodium pyruvate (0.5 mM, Gibco), penicillin-streptomycin (100 U/mL, 100 μg/mL) and Geneticin® Selective antibiotic (G418; 0.5 mg/mL). Cells were detached from the flask base using a non-enzymatic cell dissociation solution (Cellstripper, Corning), removed and re-seeded on to poly-D-lysine coated glass coverslips in 35 mm dishes. Cells in dishes were further supplemented with G418 at a final concentration of 1 mg/mL and after 24 hours, expression of Cav3.2 was induced with 1 μg/mL tetracycline. The medium for the HEK-293 cells was composed of D-MEM/F-12 (Dulbecco's Modified Eagle Medium/Nutrient Mixture F-12; Gibco, #11330-032) and 15 mM HEPES buffer, with L-glutamine and pyridoxine hydrochloride. It was supplemented with FBS (Fetal Bovine Serum), P/S (Penicillin/Streptomycin) (Gibco, #15140-122), and sodium pyruvate 100 mM (Gibco, #11360-070). At least 24 hours before the assay, expression of the alpha-2-delta-1 and beta2a subunits of the calcium channel were induced with 1 ug/mL tetracycline.
# Whole-cell voltage clamp recordings were performed on rat or mouse DRG neurons within 2 days after acutely dissociation or cultured HEK293 cells expressing T-type channels (encoded by Cav3.1, Cav3.2 or Cav3.3 channels). All experiments were performed at room temperature (around 21° C.). Whole-cell currents were recorded using a MultiClamp 700B amplifier and analyzed offline with pCLAMP10.4 software (Molecular Devices, LLC, Sunnyvale Calif., USA). To record calcium currents in DRG and HEK293 cells, the external solution was composed (in mM) of 115 choline-Cl, 30 TEA-Cl, 2 CaCl2, 10 glucose and 10 HEPES (pH 7.3-7.4 adjusted with TEA-OH; osmolality verified as 295 mOsm/kg). The internal solution was composed (in mM) of 125 CsCl, 10 HEPES (acid), 10 EGTA (ethylene glycol tetraacetic acid), 1 CaCl2, 1 MgCl2, 4 MgATP and 0.3 MgGTP (pH 7.3-7.4 adjusted with CsOH; osmolality verified as 295 mOsm/kg). Since the sodium ions were absent in the external solution, tetrodoctoxin was not needed. Calcium currents were recorded at a holding potential of −100 mV and then depolarized to −30 mV for 100 ms to activate either Cav3.1, Cav3.2, or Cav3.3 expressed in HEK cells. An interpulse interval of 10 seconds allowed the channel recovery from inactivation, and achieved stable current recordings. To record sodium (Na^+) currents in DRG neurons, the external solution used the modified Krebs solution specified above. The internal solution was composed (in mM) of 120 CsF, 10 HEPES, 11 EGTA, 1 CaCl2, 1 MgCl2, 10 TEA-Cl, 4 MgATP and 0.3 MgGTP (pH 7.3-7.4 adjusted with CsOH). […] To record potassium currents in DRG neurons, the external solution used the modified Kreb's solution specified above. The internal solution was composed (in mM) of 65 KCl, 80 KF, 5 KOH, 10 EGTA, 2 MgATP (pH 7.3-7.4 adjusted with KOH). Recording electrodes were fabricated using a P-87 puller (Sutter Instrument Co., Novato, Calif., USA). The tip of resistance was 3-4 MQ in bath and the series resistance was less than 10 MΩ after whole cell configuration. All reagents were purchased from Sigma unless specified otherwise. Test compounds were usually applied via a rapid solution exchange system with 8 fine polyplastic tubings (100 μm, OD) glued in a holder in parallel and located closely to the recorded cells. […]
# T1 sequence (O95180 whole entry): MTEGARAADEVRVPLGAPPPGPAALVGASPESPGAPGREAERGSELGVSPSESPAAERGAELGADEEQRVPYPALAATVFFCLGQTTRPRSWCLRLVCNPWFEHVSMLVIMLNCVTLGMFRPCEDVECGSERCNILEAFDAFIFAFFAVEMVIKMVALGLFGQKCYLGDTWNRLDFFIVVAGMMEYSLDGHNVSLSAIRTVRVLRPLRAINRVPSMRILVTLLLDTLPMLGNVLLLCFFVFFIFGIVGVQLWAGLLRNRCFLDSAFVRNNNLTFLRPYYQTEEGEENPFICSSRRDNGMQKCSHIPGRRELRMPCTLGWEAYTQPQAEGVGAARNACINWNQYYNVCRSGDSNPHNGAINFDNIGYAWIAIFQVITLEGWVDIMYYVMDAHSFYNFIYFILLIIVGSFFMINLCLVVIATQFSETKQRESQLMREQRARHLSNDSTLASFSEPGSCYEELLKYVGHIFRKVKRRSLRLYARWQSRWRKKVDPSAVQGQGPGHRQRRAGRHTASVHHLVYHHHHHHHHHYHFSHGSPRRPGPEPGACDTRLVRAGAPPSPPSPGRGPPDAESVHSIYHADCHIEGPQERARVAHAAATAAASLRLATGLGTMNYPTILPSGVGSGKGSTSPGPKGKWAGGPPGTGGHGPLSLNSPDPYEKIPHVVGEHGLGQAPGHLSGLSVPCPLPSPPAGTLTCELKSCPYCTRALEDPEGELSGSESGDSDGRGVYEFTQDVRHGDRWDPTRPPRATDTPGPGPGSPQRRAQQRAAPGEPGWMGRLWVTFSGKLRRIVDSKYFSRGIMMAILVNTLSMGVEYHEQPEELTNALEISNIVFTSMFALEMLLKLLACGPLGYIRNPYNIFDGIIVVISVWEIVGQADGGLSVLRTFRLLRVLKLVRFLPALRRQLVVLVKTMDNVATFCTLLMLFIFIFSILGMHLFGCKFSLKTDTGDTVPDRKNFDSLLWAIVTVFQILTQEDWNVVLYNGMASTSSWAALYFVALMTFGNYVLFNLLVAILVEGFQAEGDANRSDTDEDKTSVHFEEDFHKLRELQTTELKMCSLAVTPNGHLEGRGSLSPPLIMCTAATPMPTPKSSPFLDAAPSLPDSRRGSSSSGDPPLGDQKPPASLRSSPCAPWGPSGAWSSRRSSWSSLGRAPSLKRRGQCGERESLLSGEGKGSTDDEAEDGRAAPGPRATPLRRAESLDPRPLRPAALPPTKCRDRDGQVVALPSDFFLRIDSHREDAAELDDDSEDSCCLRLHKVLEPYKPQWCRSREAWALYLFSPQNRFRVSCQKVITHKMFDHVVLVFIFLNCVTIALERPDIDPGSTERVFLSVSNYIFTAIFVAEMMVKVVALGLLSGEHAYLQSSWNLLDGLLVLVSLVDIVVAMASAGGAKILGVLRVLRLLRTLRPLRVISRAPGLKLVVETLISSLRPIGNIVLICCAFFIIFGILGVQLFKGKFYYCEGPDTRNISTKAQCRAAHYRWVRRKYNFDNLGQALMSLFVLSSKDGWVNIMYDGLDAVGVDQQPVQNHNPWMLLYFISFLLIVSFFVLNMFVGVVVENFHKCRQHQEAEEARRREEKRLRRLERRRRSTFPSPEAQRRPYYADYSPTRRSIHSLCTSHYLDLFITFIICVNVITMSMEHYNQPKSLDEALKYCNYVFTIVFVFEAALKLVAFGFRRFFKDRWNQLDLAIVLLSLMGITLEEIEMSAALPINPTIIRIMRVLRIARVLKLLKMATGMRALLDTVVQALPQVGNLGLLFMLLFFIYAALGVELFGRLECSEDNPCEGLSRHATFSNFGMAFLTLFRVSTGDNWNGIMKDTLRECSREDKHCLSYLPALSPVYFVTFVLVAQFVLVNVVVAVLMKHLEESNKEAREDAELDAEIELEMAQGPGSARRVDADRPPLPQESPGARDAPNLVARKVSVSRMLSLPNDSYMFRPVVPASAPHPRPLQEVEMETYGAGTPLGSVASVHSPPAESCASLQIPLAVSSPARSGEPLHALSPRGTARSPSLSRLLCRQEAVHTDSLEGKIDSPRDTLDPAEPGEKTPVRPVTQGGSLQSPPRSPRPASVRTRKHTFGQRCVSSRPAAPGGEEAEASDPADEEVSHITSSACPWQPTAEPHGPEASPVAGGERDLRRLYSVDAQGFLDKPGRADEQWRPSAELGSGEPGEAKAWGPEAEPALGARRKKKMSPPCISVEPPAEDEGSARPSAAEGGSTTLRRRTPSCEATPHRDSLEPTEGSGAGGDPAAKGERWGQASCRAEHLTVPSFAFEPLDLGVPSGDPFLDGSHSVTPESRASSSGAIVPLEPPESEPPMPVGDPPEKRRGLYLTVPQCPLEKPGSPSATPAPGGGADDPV
row,SMILES,IC50
1,O=C(N[C@@H]1CCC12CCN(CCc1ccccc1)CC2)c1ccccc1 [Example 111],1500 nM

# Same assay, conditions: HEK293; Table 1 primary screening; 1 μM
row,inhibition at 1 µM,SMILES
1,26%,"O=C(CN1CCC(CNC(=O)c2ccccc2)CC1)NC1CCCCC1 [Example 100, N-((1-(2-(Cyclohexylamino)-2-oxoethyl)piperidin-4-yl)methyl)benzamide]"
2,35%,"O=C(Nc1cc(Cl)cc(Cl)c1)C1CC12CCN(CCc1ccccc1)CC2 (stereo not drawn) [Example 92, N-(3,5-Dichlorophenyl)-6-phenethyl-6-azaspiro[2.5]octane-1-carboxamide]"
3,75%,"CC(C)(C)NC(=O)CN1CCC(CNC(=O)CCc2cccc(Cl)c2)CC1 [Example 99, N-((1-(2-(tert-Butylamino)-2-oxoethyl)piperidin-4-yl)methyl)-3-(3-chlorophenyl)propanamide]"
4,47%,"O=C(CN1CCC(CNC(=O)c2ccc(O)cc2)CC1)Nc1ccccc1 [Example 102, 4-Hydroxy-N-((1-(2-oxo-2-(phenylamino)ethyl)piperidin-4-yl)methyl)benzamide]"
5,67%,Clc1cc(Cl)cc(NCC2CC23CCN(CCc2ccccc2)CC3)c1 (stereo not drawn) [Example 95]
6,69%,"CC(C)(C)CCN1CCC2(CC1)CC2NC(=O)c1ccc(Cl)cc1Cl (stereo not drawn) [Example 23, 2,4-Dichloro-N-(6-(3,3-dimethylbutyl)-6-azaspiro[2.5]octan-1-yl)benzamide]"

row,SMILES,inhibition at 1 µM
1,O=C(N[C@@H]1CCC12CCN(CCc1ccccc1)CC2)c1ccccc1 [Example 111],30%

# Same assay, conditions: Table 1; tested at at least 4 concentrations; read-out: IC50
row,IC50,SMILES
1,160 nM,"O=C(NC1CC12CCN(CCC1CCOCC1)CC2)c1cc(Cl)cc(Cl)c1 (stereo not drawn) [Example 47, 3,5-Dichloro-N-(6-(2-(tetrahydro-2H-pyran-4-yl)ethyl)-6-azaspiro[2.5]octan-1-yl)benzamide]"
2,120 nM,"CC(C)(C)CCN1CCC2(CC1)CC2NC(=O)c1ccc(Cl)c(Cl)c1 (stereo not drawn) [Example 7, 3,4-Dichloro-N-(6-(3,3-dimethylbutyl)-6-azaspiro[2.5]octan-1-yl)benzamide]"
3,30 nM,"O=C(NC1CC12CCN(CCc1ccccc1)CC2)c1cc(Cl)cc(Cl)c1 (stereo not drawn) [Example 13, 3,5-Dichloro-N-(6-phenethyl-6-azaspiro[2.5]octan-1-yl)benzamide]"
4,130 nM,CC(C)(C)NC(=O)CN1CCC2(CC1)CC2C(=O)Nc1cc(Cl)cc(Cl)c1 (stereo not drawn) [Example 90]
5,70 nM,"CC(C)(C)CCN1CCC2(CC1)CC2N(CC1CC1)C(=O)c1cc(Cl)cc(Cl)c1 (stereo not drawn) [Example 55, 3,5-Dichloro-N-(cyclopropylmethyl)-N-(6-(3,3-dimethylbutyl)-6-azaspiro[2.5]octan-1-yl)benzamide]"
6,150 nM,"O=C(NC1CC12CCN(CC1CCOCC1)CC2)c1cc(Cl)cc(Cl)c1 (stereo not drawn) [Example 46, 3,5-Dichloro-N-(6-((tetrahydro-2H-pyran-4-yl)methyl)-6-azaspiro[2.5]octan-1-yl)benzamide]"
7,210 nM,"CC(C)(C)C(O)CN1CCC2(CC1)CC2NC(=O)c1cc(F)cc(Cl)c1 (single isomer, unassigned) [Example 135, 3-Chloro-5-fluoro-N-((1R)-6-(2-hydroxy-3,3-dimethylbutyl)-6-azaspiro[2.5]octan-1-yl)benzamide or 3-Chloro-5-fluoro-N-((1S)-6-(2-hydroxy-3,3-dimethylbutyl)-6-azaspiro [2.5]octan-1-yl) benzamide]"
8,250 nM,"CC(C)(C)NC(=O)CN1CCC2(CC1)CC2NC(=O)c1cc(F)cc(C(F)(F)F)c1 (stereo not drawn) [Example 18, N-{6-[(tert-Butylcarbamoyl)methyl]-6-azaspiro[2.5]octan-1-yl}-3-fluoro-5-(trifluoromethyl)benzamide]"
9,200 nM,"CC(C)(C)NC(=O)CN1CCC2(CCC2NC(=O)c2cc(Cl)cc(Cl)c2)CC1 (stereo not drawn) [Example 71, N-(7-(2-(tert-Butylamino)-2-oxoethyl)-7-azaspiro[3.5]nonan-1-yl)-3,5-dichlorobenzamide]"
10,550 nM,"CC(C)(C)CCN1CCC2(CC1)CC2NC(=O)c1ccc(Cl)s1 (stereo not drawn) [Example 27, 5-Chloro-N-(6-(3,3-dimethylbutyl)-6-azaspiro[2.5]octan-1-yl)thiophene-2-carboxamide]"
